Assay results reported in patent US9782411B2, “{4-[5-(3-chloro-phenoxy)-oxazolo[5,4-d]pyrimidin-2-yl]-2,6-dimethyl-phenoxy}-acetic acid for use in the prevention or treatment of acute kidney injury” (Sanofi, priority 2013, dated 2017).
pEC50: −log10 of the molar value.

Legend:
S1P1 [1] = target: T1, S1P1 (Homo sapiens, UniProt P21453); assay: FLIPR calcium assay, ChemiScreen cells (GPCRProfiler, Millipore); format: cell-based; settings: ChemiScreen cells over-expressing human S1P1; 0% proteins in assay media; read-out: EC50, FLIPR, Chem cells
T1 sequence (P21453 whole entry, the tested form may be a part): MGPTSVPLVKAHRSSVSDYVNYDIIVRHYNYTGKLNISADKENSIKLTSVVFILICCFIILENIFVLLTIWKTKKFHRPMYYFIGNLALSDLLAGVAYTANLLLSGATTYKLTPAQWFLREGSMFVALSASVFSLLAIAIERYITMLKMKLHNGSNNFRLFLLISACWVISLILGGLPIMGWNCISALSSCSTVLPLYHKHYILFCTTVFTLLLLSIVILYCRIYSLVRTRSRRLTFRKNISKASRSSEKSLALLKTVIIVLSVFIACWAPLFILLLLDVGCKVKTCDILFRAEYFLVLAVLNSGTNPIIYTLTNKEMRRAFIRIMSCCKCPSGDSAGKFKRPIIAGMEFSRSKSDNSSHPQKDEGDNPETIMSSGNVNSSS

hS1P1-G-fusion = target: T2, hS1P1-G-fusion (Homo sapiens, UniProt P21453); assay: Calcium mobilization (FlipR) assay in CHO cells; format: cell-based; settings: CHO over-expressing human S1P1 (G-fusion); 0% proteins in assay media
T2 construct: fused on or other part: Modified G-protein alpha subunit (G alpha i4qi4) fused to the receptor's C-terminus to force coupling to calcium release
T2 sequence (P21453 whole entry, the tested form may be a part): as above
Experimental: The activation of the S1P1 receptor by the compounds was quantified by their effect on S1P1 receptor-related calcium liberation in a cell-based calcium fluorescence assay by use of CHO cells in which the human S1P1 receptor was stably overexpressed (Flp-In system, Invitrogen). […] Changes in intracellular calcium were determined by fluorescence measurement with the calcium-sensitive dye fluo-4 (Invitrogen) in a fluorescence imaging plate reader (FlipR, Molecular Dynamics).
CHO cells stably overexpressing the human S1P1 receptor were seeded (40.000 per well) in black clear-bottomed poly-D-lysine-coated 96 well plates (Becton Dickinson, Biocoat cellware) approximately 18-24 h prior to the experiments. […]
Prior to the FlipR experiment, cells were loaded with fluo-4 acetoxymethyl ester (fluo-4 AM, Invitrogen, #F14202) for 60 min in an incubator at 37° C., 5% carbon dioxide and 95% humidity in dye-loading buffer consisting of Hanks' Balanced Salt Solution (HBSS; Invitrogen #14065049) supplemented with fluo-4 AM at 2 μM (all data given for final concentration), Pluronic® F-127 0.05% (vol/vol) (Invitrogen, #P-3000MP), HEPES 20 mM (Gibco #15630), probenecid 2.5 mM (Sigma #P-8761) and bovine serum albumin (BSA) 0.05% (Sigma # A-6003), adjusted to pH 7.5 with sodium hydroxide. […] This latter buffer was also used as the buffer in the subsequent cell fluorescence measurements.
The dye-loaded and washed cells were then stimulated with respective compounds with various concentrations added as a solution in DMSO (0.3% vol/vol maximum final concentration of DMSO), or with S1P (100 nM final concentration) in DMSO in the respective concentration only (positive control). Compounds which activated the S1P receptor lead to liberation of intracellular calcium from internal stores resulting in a large transient increase of the fluo-4 fluorescence signal which was monitored over approximately 3 min. The percent activation caused by a test compound was determined from the maximum fluorescence response as compared to the maximum fluorescence response to the S1P positive control. […]

S1P2 = S1P2 (Homo sapiens, UniProt O95136); assay: FlipR (Chem) GPCRProfiler assay, S1P2; format: cell-based
S1P2, sequence (O95136 whole entry): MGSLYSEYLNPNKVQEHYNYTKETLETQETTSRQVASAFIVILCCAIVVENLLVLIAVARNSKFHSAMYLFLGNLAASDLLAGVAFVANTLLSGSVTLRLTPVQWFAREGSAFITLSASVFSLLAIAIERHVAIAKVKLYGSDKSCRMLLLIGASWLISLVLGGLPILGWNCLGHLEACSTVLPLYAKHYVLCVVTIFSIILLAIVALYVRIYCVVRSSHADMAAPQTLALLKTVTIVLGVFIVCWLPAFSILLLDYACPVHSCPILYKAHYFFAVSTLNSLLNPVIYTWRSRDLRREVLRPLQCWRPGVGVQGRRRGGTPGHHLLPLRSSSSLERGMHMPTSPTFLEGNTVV
Source text: (§1) The GPCRProfiler® assay from Millipore was used to determine the EC50 activity of compound A, BAF-312 and fingolimod on S1P1, S1P2, S1P3, S1P4 or S1P5 receptors. These assays used ChemiScreen GPCR stable cell lines.

S1P5 [2] = target: T3, S1P5 (Homo sapiens, UniProt Q9H228); assay: FlipR (Chem) GPCRProfiler assay, S1P5; format: cell-based
T3 sequence (Q9H228 whole entry): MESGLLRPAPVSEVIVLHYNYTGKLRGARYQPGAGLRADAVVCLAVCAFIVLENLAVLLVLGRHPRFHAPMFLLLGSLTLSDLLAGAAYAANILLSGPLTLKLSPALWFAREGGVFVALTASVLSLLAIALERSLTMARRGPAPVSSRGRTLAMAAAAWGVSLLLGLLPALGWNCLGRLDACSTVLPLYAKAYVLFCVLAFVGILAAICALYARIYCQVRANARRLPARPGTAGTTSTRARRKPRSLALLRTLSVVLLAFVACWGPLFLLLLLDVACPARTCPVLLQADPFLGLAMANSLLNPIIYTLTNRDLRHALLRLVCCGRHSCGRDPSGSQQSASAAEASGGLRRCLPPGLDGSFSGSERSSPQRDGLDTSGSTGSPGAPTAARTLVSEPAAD
Source text: as §1

S1P3 = S1P3 (Homo sapiens, UniProt Q99500); assay: PathHunter β-arrestin assay, S1P3; format: cell-based; settings: 0.5% FBS
S1P3, sequence (Q99500 whole entry): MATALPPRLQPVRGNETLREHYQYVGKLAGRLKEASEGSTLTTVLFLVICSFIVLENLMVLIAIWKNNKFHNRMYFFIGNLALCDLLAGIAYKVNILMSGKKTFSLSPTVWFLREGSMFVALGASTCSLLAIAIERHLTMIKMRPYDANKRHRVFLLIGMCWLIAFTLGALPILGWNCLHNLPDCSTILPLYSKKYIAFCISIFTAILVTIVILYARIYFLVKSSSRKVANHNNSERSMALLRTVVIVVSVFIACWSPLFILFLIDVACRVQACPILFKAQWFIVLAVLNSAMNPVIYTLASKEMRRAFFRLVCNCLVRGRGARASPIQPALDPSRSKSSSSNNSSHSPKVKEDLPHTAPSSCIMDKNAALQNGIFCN
Experimental: (§2) The PathHunter® β-Arrestin Assay from DiscoverX was used to determine the EC50 activity of compound A, BAF-312 and fingolimod on S1P1, S1P2, S1P3, S1P4 or S1P5 receptors. The compounds were tested in assay medium containing 0.5% FBS.

S1P5 [3] = target: T3, S1P5; assay: PathHunter β-arrestin assay, S1P5; format: cell-based; settings: 0.5% FBS
Experimental: as §2

Fischer rats = assay: Rat model of renal ischemia reperfusion (I/R) injury; format: in vivo; settings: for AKI protection (FIG. 3-D): Fischer rats, compound A at 3 mg/kg
Experimental: Male Fischer rats (n=3-9, 250 to 300 g) (Charles River Laboratory, France) received oral administration of compound A at 0.3, 1 and 3 mg/kg or BAF-312 at 3, 10 and 30 mg/kg or vehicle article (methylcellulose 0.6%—tween 80 0.5% in water) within a volume of administration of 2 mL/kg, one hour before renal ischemia. In a second set of experiment, compound A was administrated b.i.d. during 5 days to assess potential tachyphylaxia. Briefly, animals were subjected to sham surgery (i.e. laparotomy, renal arteries isolation) or to 25 min bilateral renal artery occlusion under pentobarbital (50 mg/kg i.p.) anaesthesia. Body temperature (37° C.-38° C.) and hydration (peritoneal injection of physiological serum) were carefully monitored to standardize the surgery procedure and limit inter-individual variability. At the end of the ischemic period, kidneys were reperfused by removing clamps, and the quality of reperfusion was controlled before suturing muscular and cutaneous plan (animals with poor reperfusion were excluded immediately). Twenty-four hours later, blood and kidneys were collected. Blood was centrifuged (3000 g, 10 min) and heparinised plasma frozen for creatinine evaluation using a biochemical analyser (P400, Horiba, France). One kidney was frozen for western blot analyses for tissue albumin (anti-albumin, Santa Cruz) and tissue HSP70 (monoclonal anti-HSP70 antibody from Santa Cruz #SC32239) evaluation and the second one fixed (10% neutral-buffered formalin) and paraffin-embedded for histological analyses on 5 μm-thick slice (acute tubular necrosis quantification using classical hematoxylin-erythrosin-Saffran, modified Masson's trichrome and periodic acid-Schiff associated blue alcine) and immunohistochemistry analyses (macrophage staining with monoclonal anti-CD68 antibody from Acris #BM4000, and capillary staining with monoclonal ant-PECAM antibody from Santa Cruz #SC1506, using Ventana robot, VMS Inc.). […] CD68 and PECAM immunolabeling are expressed as percentage of positive pixel count (Aperio algorithm) on whole section. Plasma creatinine is expressed as mean+/−s.e.m.

S1P1 [4] = target: T1, S1P1; assay: cAMP HTRF assay in forskolin-treated HUVEC; format: cell-based; parameters: host or cells: HUVEC (primary); settings: 0.1% BSA
Experimental: Briefly, HUVEC (Lonza) were seeded at 5×10^3 cells per well into a white 96 multiwell plate (half volume) for 24 hours in EGM2 medium (Lonza). At the beginning of the experiment, EGM2 medium was replaced by assay buffer consisting in HBSS containing Hepes (10 mM), BSA (0.1%) and IBMX (0.5 mM). Cells were allowed to recover during 15 min. […] After 45 min of FSK treatment, reaction was stopped by addition of MAb anti-cAMP-cryptate and cAMP-D2 for 1 hour. At the end of the incubation, fluorescence was read (Envision, Perkin Elmer) and FRET ratio calculated according to assay kit protocol.

S1P1 [5] = target: T1, S1P1; assay: Hit Hunter cAMP assay, CHO; format: cell-based; parameters: host or cells: CHO (PathHunter); settings: 0.5% FBS
Experimental: The Hit Hunter® cAMP Assay from DiscoverX was used to determine the EC50 activity of compound A, BAF-312 and fingolimod on S1P1. The compounds were tested in assay medium containing 0.5% FBS.

| pEC50 (S1P1 [1]) | pEC50 (hS1P1-G-fusion) | pEC50 (S1P2) | pEC50 (S1P5 [2]) | pEC50 (S1P3) | pEC50 (S1P5 [3]) | pEC50 (S1P1 [4]) | pEC50 (S1P1 [5]) | SMILES | AKI protection (FIG. 3-D) (Fischer rats) | Reduction in serum creatinine (Fischer rats; doses up to 30 mg/kg p.o.) [%] | Albumin extravasation (cortical albumin, western blot) (Fischer rats; 3 mg/kg p.o.) | Tachyphylaxis (Fischer rats; 3 mg/kg p.o. BID for 5 days vs single administration) | Effect on serum creatinine, dose dependence and significance (Fischer rats; 1 and 3 mg/kg p.o.) | Reduction of severity of AKI (limiting the rise of serum creatinine) (Fischer rats; p.o. 1 hour before occlusion, 24 h reperfusion) | Capillaries (histological analysis) (Fischer rats; rat, in vivo) | Macrophages infiltration (Fischer rats; rat, in vivo) | Renal HSP70 protein (Fischer rats; rat, in vivo) | Renal proximal tubule necrosis (Fischer rats; rat, in vivo) |
| --- | --- | --- | --- | --- | --- | --- | --- | --- | --- | --- | --- | --- | --- | --- | --- | --- | --- | --- |
| 7.54 | 8.55 | < 4.52 | 6.52 | < 5.00 | 7.46 | 7.13 | 9.33 | CCc1cc(/C(C)=N/OCc2ccc(C3CCCCC3)c(C(F)(F)F)c2)ccc1CN1CC(C(=O)O)C1 [BAF-312] | partial AKI protection | ≤ 40 | – | – | – | – | – | – | – | – |
| 7.07 | 7.51 | < 4.52 | 6.00 | < 5.00 | 5.89 | 4.81 | 7.65 | Cc1cc(-c2nc3cnc(Oc4cccc(Cl)c4)nc3o2)cc(C)c1OCC(=O)O [Compound A, {4-[5-(3-chloro-phenoxy)-oxazolo[5,4-d]pyrimidin-2-yl]-2,6-dimethyl-phenoxy}-acetic acid] | full AKI protection | – | preventing albumin extravasation | no sign of tachyphylaxis | dose-dependent and statistically significant | 85-90% | preserving capillaries | reduced macrophages infiltration | increased renal HSP70 protein | protected renal proximal tubules from necrosis |
